Legend:
[1] = Singlet oxygen detection by photosensitized oxygenation of DPIBF; format: physicochemical; details: ethanol, red light 660 nm
From the text: The second method of singlet oxygen detection was based on photosensitized oxygenation of the singlet oxygen conjugate 1,3-diphenylisobenzofuran (DPIBF) (Acros Organics, United Kingdom). DPIBF chemically binds to two singlet oxygens (^1O2) (FIG. 3). This method was applied to chlorin e4 sodium solutions in ethanol. The major absorption band of DPIBF is located at 414-415 nm. The molar absorption coefficient in this maximum, εDPIBF, is known to be 23500 M^−1 cm^−1. Tested solutions were irradiated by the monochromatic light from a xenon lamp using the excitation system of the spectrofluorimeter Perkin-Elmer MPF-44B, the spectral width of the monochromator bandwidth corresponding to 5 nm. Radiant power was measured using the calibrated detector ThorLabs PM-100 (Germany). The singlet oxygen quantum yields (ΦΔ) were calculated according to the equation: […]

[2] = tested on: lung cancer with metastases in the lymph nodes and sacrum bone; experiment: In vivo studies Example 11: patient, oral chlorin e4 sodium plus laser and LED light; set-up: species or system human
Method: A patient with lung cancer with metastases in the lymph nodes and sacrum bone, was treated successfully. […] The treatment consisted of five courses. For each course, five doses of 62.5-187.5 mg chlorin e4 sodium were administered orally over the course of eight days. 24-48 hours after each oral dose of chlorin e4 sodium, the patient was treated with laser and LED light having a wavelength of 660 nm and 760 nm. Additionally, for two of the treatment courses, an interstitial light treatment using a fine needle was performed on the sacrum bone with an optical fibre laser having a wavelength of 660 nm and 760 nm. Additionally, mesothelium bone growth therapy was administered for the last two treatment courses.

[3] = tested on: non-small cell lung cancer with metastases in the lymph nodes and bones; experiment: In vivo studies Example 8: patient, oral chlorin e4 sodium plus laser and LED light; set-up: species or system human
Method: (§1) A patient with non-small cell lung cancer with metastases in the lymph nodes and bones, was treated successfully. The treatment consisted of two courses. For each course, five doses of 62.5-187.5 mg chlorin e4 sodium were administered orally over the course of eight days. About 24 hours after each oral dose of chlorin e4 sodium, the patient was treated with laser and LED light having a wavelength of 660 nm and 760 nm.

[4] = tested on: stage IVB Hodgkin's lymphoma with metastases; experiment: In vivo studies Example 4: patient, oral chlorin e4 sodium plus laser and LED light; set-up: species or system human
Method: as §1, with “stage IVB Hodgkin's lymphoma” for “non-small cell lung cancer”, “liver, lymphatic system, spleen, lung” for “lymph nodes”, “three” for “two”, “24-48” for “About 24”
(§2) Subsequently the patient was treated with a further two courses. Again, for each course, five doses of 62.5-187.5 mg chlorin e4 sodium were administered orally over the course of eight days. 24-48 hours after each oral dose of chlorin e4 sodium, the patient was treated with laser and LED light having a wavelength of 660 nm and 760 nm.

[5] = tested on: naso pharyngeal carcinoma with extension to a lymph node in the left neck; experiment: In vivo studies Example 2: patient, oral chlorin e4 sodium plus laser and LED light; set-up: species or system human
Method: as §1, with “naso pharyngeal carcinoma” for “non-small cell lung cancer”, “extension to a lymph node” for “metastases”, “left neck,” for “lymph nodes and bones,”, “three” for “two”, “24-48” for “About 24”
as §2, with “further course.” for “further two courses.”, “for the” for “for each”

[6] = tested on: advanced metastatic kidney disease with metastases in the gall bladder, liver and lung; experiment: In vivo studies Example 3: patient, oral chlorin e4 sodium plus laser and LED light; set-up: species or system human
Method: as §1, with “advanced metastatic kidney disease” for “non-small cell lung cancer”, “gall bladder, liver” for “lymph nodes”, “lung,” for “bones,”, “three” for “two”, “24-48” for “About 24”
as §2, with “nm. Additionally an interstitial light treatment using a fine needle was performed on the liver and lung with an optical fibre laser having a wavelength of 660 nm and 760 nm.” for “nm.”

C=Cc1c(C)c2cc3nc(c(C)c4[nH]c(cc5nc(cc1[nH]2)C(C)=C5CC)c(C)c4C(=O)O)[C@@H](CCC(=O)O)[C@@H]3C [chlorin e4 sodium]
Quantum yield of singlet oxygen generation [1]: 0.68±0.05 | Patient status ([2]; 10 months after starting, four months after completion of treatment): alive and well | Response (PET/CT) ([2]; five courses, interstitial light on sacrum bone, mesothelium bone growth therapy for last two courses): complete response | Patient status ([3]; 10 months after starting, seven months after completion of treatment): alive and well | Response of the lungs (PET/CT) ([3]; before and after two courses): many tumours disappearing and the remaining tumours showing no or low metabolic activity | Side effects ([3]; two courses): no side effects | Response (PET/CT) ([4]; after a further two courses): good treatment response | Tumours in areas treated with light (CT) ([4]; after three courses): some tumours disappeared altogether and some tumours reduced in size | Survival time ([4]; life expectancy before treatment only two weeks): two years and two months | Response (ultrasound images and biopsies) ([5]; after the final (fourth) treatment course): complete response | Biopsy of the treated lymph node of the neck ([5]; immediately following three courses, confirmed ten months after treatment): no cancer cells were detected | Comparison of CT scans ([5]; one month before and ten months after treatment): no spread of tumours and that the size of the tumours was reduced | Patient status ([5]; two years and six months after starting, five months after completion of treatment): alive and well | Response (PET/CT) ([6]; after a further two courses with interstitial light on liver and lung): good treatment response | Metastasis ([6]; after three courses): No further metastasis was observed | Tumours throughout the body (PET/CT) ([6]; before and two, three, five and 15 months after three courses): some tumours disappeared altogether and the remaining tumours reduced in size | Side effects ([6]; five courses): no side effects | Survival time ([6]; life expectancy prior to treatment only six months): two years and four months
